Tests used:
Homo sapiens [1] = species: Homo sapiens; assay: Liver toxicity in human assessed as induction of drug-induced liver injury by measuring severity class index
Homo sapiens [2] = species: Homo sapiens; assay: Liver toxicity in human assessed as induction of drug-induced liver injury by measuring verified drug-induced liver injury concern status
Wherever DILI severity class is given: key of the grades not given here.

Row | SMILES | DILI_severity_class (Homo sapiens [1]) | DILI_Concern (Homo sapiens [2])
1 | N#C[C@@H]1C[C@@H]2C[C@@H]2N1C(=O)[C@@H](N)C12CC3CC(CC(O)(C3)C1)C2 [SAXAGLIPTIN ANHYDROUS] | 0 | No-Dili-Concern
2 | CN1[C@@H]2C[C@@H](OC(=O)[C@H](CO)c3ccccc3)C[C@H]1[C@@H]1O[C@@H]12 [SCOPOLAMINE] | 0 | No-Dili-Concern
3 | C=CCC1(C(C)CCC)C(=O)NC(=O)NC1=O (stereo not drawn) [SECOBARBITAL] | 3 | Ambiguous-Dili-Concern
4 | C#CCN(C)[C@H](C)Cc1ccccc1 [SELEGILINE] | 0 | No-Dili-Concern
5 | CN[C@H]1CC[C@@H](c2ccc(Cl)c(Cl)c2)c2ccccc21 [SERTRALINE] | 3 | Less-Dili-Concern
6 | CC(C)CC(N(C)C)C1(c2ccc(Cl)cc2)CCC1 (stereo not drawn) [SIBUTRAMINE] | 4 | Less-Dili-Concern
7 | C[C@H](Cc1cc2c(c(C(N)=O)c1)N(CCCO)CC2)NCCOc1ccccc1OCC(F)(F)F [SILODOSIN] | 3 | Ambiguous-Dili-Concern
8 | CSCC[C@H](NC(=O)[C@H](Cc1ccc(OS(=O)(=O)O)cc1)NC(=O)[C@@H](N)CC(=O)O)C(=O)NCC(=O)N[C@@H](Cc1c[nH]c2ccccc12)C(=O)N[C@@H](CCSC)C(=O)N[C@@H](CC(=O)O)C(=O)N[C@@H](Cc1ccccc1)C(N)=O [SINCALIDE] | 0 | No-Dili-Concern
9 | CO[C@H]1C[C@@H]2CC[C@@H](C)[C@@](O)(O2)C(=O)C(=O)N2CCCC[C@H]2C(=O)O[C@H]([C@H](C)C[C@@H]2CC[C@@H](O)[C@H](OC)C2)CC(=O)[C@H](C)/C=C(\C)[C@@H](O)[C@@H](OC)C(=O)[C@H](C)C[C@H](C)/C=C/C=C/C=C/1C [SIROLIMUS] | 8 | Less-Dili-Concern
10 | N[C@@H](CC(=O)N1CCn2c(nnc2C(F)(F)F)C1)Cc1cc(F)c(F)cc1F [SITAGLIPTIN] | 4 | Less-Dili-Concern
11 | Cc1cc2c(cc1CC(=O)c1sccc1S(=O)(=O)Nc1onc(C)c1Cl)OCO2 [SITAXENTAN] | 8 | Most-Dili-Concern
12 | O=C([O-])O.[Na+] [SODIUM BICARBONATE] | 0 | No-Dili-Concern
13 | CC(O)C(=O)[O-].[Na+] (stereo not drawn) [SODIUM LACTATE] | 0 | No-Dili-Concern
14 | O=C(O[C@H]1CN2CCC1CC2)N1CCc2ccccc2[C@@H]1c1ccccc1 [SOLIFENACIN] | 3 | Ambiguous-Dili-Concern
15 | CNC(=O)c1cc(Oc2ccc(NC(=O)Nc3ccc(Cl)c(C(F)(F)F)c3)cc2)ccn1 [SORAFENIB] | 8 | Most-Dili-Concern
16 | OC[C@@H](O)[C@@H](O)[C@H](O)[C@@H](O)CO [SORBITOL] | 0 | No-Dili-Concern
17 | CC(C)NCC(O)c1ccc(NS(C)(=O)=O)cc1 (stereo not drawn) [SOTALOL] | 3 | Ambiguous-Dili-Concern
18 | CN[C@@H]1[C@H](O)[C@H](NC)[C@H]2O[C@@]3(O)C(=O)C[C@@H](C)O[C@H]3O[C@@H]2[C@H]1O [SPECTINOMYCIN] | 3 | Ambiguous-Dili-Concern
19 | CC(=O)S[C@@H]1CC2=CC(=O)CC[C@]2(C)[C@H]2CC[C@@]3(C)[C@@H](CC[C@@]34CCC(=O)O4)[C@H]12 [SPIRONOLACTONE] | 2 | Less-Dili-Concern
20 | Cc1cn([C@H]2C=C[C@@H](CO)O2)c(=O)[nH]c1=O [STAVUDINE] | 8 | Most-Dili-Concern
21 | [H]/N=C(/N)N[C@H]1[C@H](O)[C@@H](O)[C@H](O[C@@H]2O[C@@H](C)[C@](O)(C=O)[C@H]2O[C@@H]2O[C@@H](CO)[C@H](O)[C@@H](O)[C@@H]2NC)[C@@H](N/C(N)=N\[H])[C@@H]1O [STREPTOMYCIN] | 0 | No-Dili-Concern
22 | CN(N=O)C(=O)N[C@@H](C=O)[C@@H](O)[C@H](O)[C@H](O)CO [STREPTOZOCIN] | 3 | Ambiguous-Dili-Concern
23 | NC(=O)NS(=O)(=O)c1ccc(N)cc1 [SULFACARBAMIDE] | 8 | Most-Dili-Concern
24 | Nc1ccc(S(=O)(=O)Nc2ncccn2)cc1 [SULFADIAZINE] | 3 | Less-Dili-Concern
25 | Cc1nnc(NS(=O)(=O)c2ccc(N)cc2)s1 [SULFAMETHIZOLE] | 0 | Less-Dili-Concern

Row | SMILES | DILI_severity_class (Homo sapiens [1]) | DILI_Concern (Homo sapiens [2])
26 | O=C(O)c1cc(/N=N/c2ccc(S(=O)(=O)Nc3ccccn3)cc2)ccc1O [SULFASALAZINE] | 5 | Most-Dili-Concern
27 | Nc1ccc(S(=O)(=O)Nc2nccs2)cc1 [SULFATHIAZOLE] | 8 | Most-Dili-Concern
28 | CCCCCCCCNC(C)C(O)c1ccc(SC(C)C)cc1 (stereo not drawn) [SULOCTIDIL] | 8 | Most-Dili-Concern
29 | CCN(CC)CCNC(=O)c1c(C)[nH]c(/C=C2\C(=O)Nc3ccc(F)cc32)c1C [SUNITINIB] | 8 | Most-Dili-Concern
30 | C[N+](C)(C)CCOC(=O)CCC(=O)OCC[N+](C)(C)C [SUXAMETHONIUM] | 0 | No-Dili-Concern
31 | C=CC[C@@H]1/C=C(\C)C[C@H](C)C[C@H](OC)[C@H]2O[C@@](O)(C(=O)C(=O)N3CCCC[C@H]3C(=O)O[C@H](/C(C)=C/[C@@H]3CC[C@@H](O)[C@H](OC)C3)[C@H](C)[C@@H](O)CC1=O)[C@H](C)C[C@@H]2OC [TACROLIMUS ANHYDROUS] | 5 | Less-Dili-Concern
32 | CCOc1ccccc1OCCN[C@H](C)Cc1ccc(OC)c(S(N)(=O)=O)c1 [TAMSULOSIN] | 0 | Less-Dili-Concern
33 | CC[C@@H](c1cccc(O)c1)[C@@H](C)CN(C)C [TAPENTADOL] | 0 | No-Dili-Concern
34 | Cc1nc(C)c2c(n1)N(Cc1ccc(-c3ccccc3-c3nnn[nH]3)cc1)C(=O)CC2 [TASOSARTAN] | 8 | Most-Dili-Concern
35 | CCCCCNC(=N)N/N=C/c1c[nH]c2ccc(OC)cc12 [TEGASEROD] | 3 | Ambiguous-Dili-Concern
36 | Cc1cn([C@@H]2C[C@@H](O)[C@H](CO)O2)c(=O)[nH]c1=O [TELBIVUDINE] | 2 | Ambiguous-Dili-Concern
37 | CC[C@H]1OC(=O)[C@H](C)C(=O)[C@H](C)[C@@H](O[C@@H]2O[C@H](C)C[C@H](N(C)C)[C@H]2O)[C@](C)(OC)C[C@@H](C)C(=O)[C@H](C)[C@H]2N(CCCCn3cnc(-c4cccnc4)c3)C(=O)O[C@]12C [TELITHROMYCIN] | 8 | Most-Dili-Concern
38 | CN1C(=O)C(O)N=C(c2ccccc2)c2cc(Cl)ccc21 (stereo not drawn) [TEMAZEPAM] | 3 | Ambiguous-Dili-Concern
39 | Cn1nnc2c(C(N)=O)ncn2c1=O [TEMOZOLOMIDE] | 4 | Less-Dili-Concern
40 | CO[C@H]1C[C@@H]2CC[C@@H](C)[C@@](O)(O2)C(=O)C(=O)N2CCCC[C@H]2C(=O)O[C@H]([C@H](C)C[C@@H]2CC[C@@H](OC(=O)C(C)(CO)CO)[C@H](OC)C2)CC(=O)[C@H](C)/C=C(\C)[C@@H](O)[C@@H](OC)C(=O)[C@H](C)C[C@H](C)/C=C/C=C/C=C/1C [TEMSIROLIMUS] | 0 | No-Dili-Concern
41 | COc1cc([C@@H]2c3cc4c(cc3[C@@H](O[C@@H]3O[C@@H]5CO[C@@H](c6cccs6)O[C@H]5[C@H](O)[C@H]3O)[C@H]3COC(=O)[C@H]23)OCO4)cc(OC)c1O [TENIPOSIDE] | 3 | Less-Dili-Concern
42 | C[C@H](Cn1cnc2c(N)ncnc21)OCP(=O)(O)O [TENOFOVIR ANHYDROUS] | 3 | Less-Dili-Concern
43 | COc1cc2nc(N3CCN(C(=O)C4CCCO4)CC3)nc(N)c2cc1OC (stereo not drawn) [TERAZOSIN] | 0 | No-Dili-Concern
44 | CN(C/C=C/C#CC(C)(C)C)Cc1cccc2ccccc12 [TERBINAFINE] | 8 | Most-Dili-Concern
45 | CC(C)(C)NCC(O)c1cc(O)cc(O)c1 (stereo not drawn) [TERBUTALINE] | 3 | Less-Dili-Concern
46 | CC[C@H](C)[C@H](NC(=O)[C@H](CCC(=O)O)NC(=O)[C@H](CO)NC(=O)[C@@H](NC(=O)[C@@H](N)CO)C(C)C)C(=O)N[C@@H](CCC(N)=O)C(=O)N[C@@H](CC(C)C)C(=O)N[C@@H](CCSC)C(=O)N[C@@H](Cc1cnc[nH]1)C(=O)N[C@@H](CC(N)=O)C(=O)N[C@@H](CC(C)C)C(=O)NCC(=O)N[C@@H](CCCCN)C(=O)N[C@@H](Cc1cnc[nH]1)C(=O)N[C@@H](CC(C)C)C(=O)N[C@@H](CC(N)=O)C(=O)N[C@@H](CO)C(=O)N[C@@H](CCSC)C(=O)N[C@@H](CCC(=O)O)C(=O)N[C@@H](CCCN=C(N)N)C(=O)N[C@H](C(=O)N[C@@H](CCC(=O)O)C(=O)N[C@@H](Cc1c[nH]c2ccccc12)C(=O)N[C@@H](CC(C)C)C(=O)N[C@@H](CCCN=C(N)N)C(=O)N[C@@H](CCCCN)C(=O)N[C@@H](CCCCN)C(=O)N[C@@H](CC(C)C)C(=O)N[C@@H](CCC(N)=O)C(=O)N[C@@H](CC(=O)O)C(=O)N[C@H](C(=O)N[C@@H](Cc1cnc[nH]1)C(=O)N[C@@H](CC(N)=O)C(=O)N[C@@H](Cc1ccccc1)C(=O)O)C(C)C)C(C)C [TERIPARATIDE] | 0 | No-Dili-Concern
47 | C[C@]12CC[C@H]3[C@@H](CCC4=CC(=O)CC[C@@]43C)[C@@H]1CC[C@@H]2O [TESTOSTERONE] | 8 | Most-Dili-Concern
48 | COc1cc2c(cc1OC)C1CC(=O)C(CC(C)C)CN1CC2 (stereo not drawn) [TETRABENAZINE] | 3 | Ambiguous-Dili-Concern
49 | CN(C)[C@@H]1C(O)=C(C(N)=O)C(=O)[C@@]2(O)C(O)=C3C(=O)c4c(O)cccc4[C@@](C)(O)[C@H]3C[C@@H]12 [TETRACYCLINE] | 2 | Less-Dili-Concern

Source: ChEMBL document CHEMBL4028802, “DILIrank: the largest reference drug list ranked by the risk for developing drug-induced liver injury in humans” (Drug Discov Today, 2016)
